Measurements reported in patent US20210145816A1, “PHARMACEUTICAL FORMULATION OF LONAFARNIB WITH A SULFOBUTYLETHER BETA-CYCLODEXTRIN” (Cyclolab Cyclodextrin Research and Development Laboratory …, priority 2019, published 2021).
≈ marks a conversion by molar mass, not a printed value.

Legend:
[1] = formulation of lonafarnib into a liquid vehicle with 2-hydroxypropyl beta cyclodextrin; format: physicochemical; conditions: 20% 2-hydroxypropyl beta cyclodextrin, lonafarnib 12 mg/ml
Description: A prior publication describing formulation of lonafarnib into a liquid vehicle with a cyclodextrin is known (Hernandez et al., Science Translational Medicine, 11, eaat3005 (2019)), but based on the disclosed data, even using high concentration (20%) of 2-hydroxypropyl beta cyclodextrin (hydroxypropyl betadex), a suspension of lonafarnib was obtained for the (pre)clinically relevant concentration of the drug (12 mg/ml). […] Consequently, present invention provides a significant formulation improvement over the teachings of said journal publication.

[2] = water; cited from earlier work
[3] = 20% 2-hydroxypropyl beta cyclodextrin, lonafarnib 12 mg/ml; cited from earlier work

NC(=O)N1CCC(CC(=O)N2CCC([C@H]3c4ncc(Br)cc4CCc4cc(Cl)cc(Br)c43)CC2)CC1 [Lonafarnib]
physical state of liquid formulation obtained (experiment reproduced by Cyclolab Ltd.) [1]: rough suspension, unsuitable for parenteral application
aqueous solubility [2]: 0.8 µg/mL (≈ 1.25 µM)
physical state of liquid formulation obtained (Hernandez et al. 2019) [3]: suspension
